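Where inhibition never reached the appropriate level, the endpoint shown equals the highest concentration tested. Otherwise, values were interpolated linearly from a five-concentration, 48-hour dose response in 96-well plates. At the TGI there is no net growth.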
Tests used:
Assay in all cases: growth of human tumour cells (NCI), 48 h
786-0 renal = test system: 786-0 renal
A498 renal = test system: A498 renal
A549 NSCLC = test system: A549 NSCLC
ACHN renal = test system: ACHN renal
BT-549 breast = test system: BT-549 breast
CAKI-1 renal = test system: CAKI-1 renal
CCRF-CEM leukemia = test system: CCRF-CEM leukemia
COLO 205 colon = test system: COLO 205 colon
DU-145 prostate = test system: DU-145 prostate
EKVX NSCLC = test system: EKVX NSCLC
HCT-116 colon = test system: HCT-116 colon
HCT-15 colon = test system: HCT-15 colon
HL-60(TB) leukemia = test system: HL-60(TB) leukemia
HOP-62 NSCLC = test system: HOP-62 NSCLC
HOP-92 NSCLC = test system: HOP-92 NSCLC
HS 578T breast = test system: HS 578T breast
HT29 colon = test system: HT29 colon
IGROV1 ovarian = test system: IGROV1 ovarian
K-562 leukemia = test system: K-562 leukemia
KM12 colon = test system: KM12 colon
LOX IMVI melanoma = test system: LOX IMVI melanoma
M14 melanoma = test system: M14 melanoma
MALME-3M melanoma = test system: MALME-3M melanoma
MCF7 breast = test system: MCF7 breast
MDA-MB-231 breast = test system: MDA-MB-231 breast
MDA-MB-435 = test system: MDA-MB-435
MDA-N = test system: MDA-N
NCI-H23 lung = test system: NCI-H23 lung
NCI-H460 lung = test system: NCI-H460 lung
NCI-H522 lung = test system: NCI-H522 lung
NCI/ADR-RES ovarian = test system: NCI/ADR-RES ovarian
OVCAR-3 ovarian = test system: OVCAR-3 ovarian
OVCAR-4 ovarian = test system: OVCAR-4 ovarian
OVCAR-5 ovarian = test system: OVCAR-5 ovarian
OVCAR-8 ovarian = test system: OVCAR-8 ovarian
PC-3 prostate = test system: PC-3 prostate
RPMI-8226 leukemia = test system: RPMI-8226 leukemia
RXF 393 renal = test system: RXF 393 renal
SF-268 CNS = test system: SF-268 CNS
SF-295 CNS = test system: SF-295 CNS
SF-539 CNS = test system: SF-539 CNS
SK-MEL-2 melanoma = test system: SK-MEL-2 melanoma
SK-MEL-28 melanoma = test system: SK-MEL-28 melanoma
SK-MEL-5 melanoma = test system: SK-MEL-5 melanoma
SK-OV-3 ovarian = test system: SK-OV-3 ovarian
SN12C renal = test system: SN12C renal
SNB-19 CNS = test system: SNB-19 CNS
SNB-75 CNS = test system: SNB-75 CNS
SR leukemia = test system: SR leukemia
SW-620 colon = test system: SW-620 colon
T-47D breast = test system: T-47D breast
TK-10 renal = test system: TK-10 renal
U251 CNS = test system: U251 CNS
UACC-257 melanoma = test system: UACC-257 melanoma
UACC-62 melanoma = test system: UACC-62 melanoma
UO-31 renal = test system: UO-31 renal
MOLT-4 leukemia = test system: MOLT-4 leukemia
NCI-H226 lung = test system: NCI-H226 lung

## COc1ccc(C(=O)/C=C/c2ccc(Oc3cc(C(=O)/C=C/c4ccc(O)cc4)c(O)cc3OC)cc2)c(O)c1
786-0 renal
  TGI: 7.9 µM
A498 renal
  TGI: 6.26 µM
A549 NSCLC
  TGI: > 100 µM
ACHN renal
  TGI: 6.85 µM
BT-549 breast
  TGI: > 100 µM
CAKI-1 renal
  TGI: 68.4 µM
CCRF-CEM leukemia
  TGI: > 100 µM
COLO 205 colon
  TGI: 15.4 µM
DU-145 prostate
  TGI: > 100 µM
EKVX NSCLC
  TGI: 23.5 µM
HCT-116 colon
  TGI: 3.96 µM
HCT-15 colon
  TGI: 6.62 µM
HL-60(TB) leukemia
  TGI: > 100 µM
HOP-62 NSCLC
  TGI: 49.2 µM
HOP-92 NSCLC
  TGI: 38.4 µM
HS 578T breast
  TGI: > 100 µM
HT29 colon
  TGI: 5.13 µM
IGROV1 ovarian
  TGI: 6.13 µM
K-562 leukemia
  TGI: > 100 µM
KM12 colon
  TGI: 7.83 µM
LOX IMVI melanoma
  TGI: 5.05 µM
M14 melanoma
  TGI: 61.2 µM
MALME-3M melanoma
  TGI: 59.8 µM
MCF7 breast
  TGI: > 100 µM
MDA-MB-231 breast
  TGI: 9.8 µM
MDA-MB-435
  TGI: > 100 µM
MDA-N
  TGI: > 100 µM
NCI-H23 lung
  TGI: 18.1 µM
NCI-H460 lung
  TGI: > 100 µM
NCI-H522 lung
  TGI: 10.5 µM
NCI/ADR-RES ovarian
  TGI: 11 µM
OVCAR-3 ovarian
  TGI: 32.2 µM
OVCAR-4 ovarian
  TGI: 18 µM
OVCAR-5 ovarian
  TGI: 26 µM
OVCAR-8 ovarian
  TGI: 9.83 µM
PC-3 prostate
  TGI: > 100 µM
RPMI-8226 leukemia
  TGI: 4.7 µM
RXF 393 renal
  TGI: 6.96 µM
SF-268 CNS
  TGI: > 100 µM
SF-295 CNS
  TGI: 40.2 µM
SF-539 CNS
  TGI: 5.26 µM
SK-MEL-2 melanoma
  TGI: 46 µM
SK-MEL-28 melanoma
  TGI: 8.15 µM
SK-MEL-5 melanoma
  TGI: 18.7 µM
SK-OV-3 ovarian
  TGI: 96.4 µM
SN12C renal
  TGI: > 100 µM
SNB-19 CNS
  TGI: > 100 µM
SNB-75 CNS
  TGI: 18.2 µM
SR leukemia
  TGI: 5.73 µM
SW-620 colon
  TGI: > 100 µM
T-47D breast
  TGI: 66.9 µM
TK-10 renal
  TGI: 58 µM
U251 CNS
  TGI: > 100 µM
UACC-257 melanoma
  TGI: > 100 µM
UACC-62 melanoma
  TGI: 11.2 µM
UO-31 renal
  TGI: 11.3 µM

## CCCCCCCCCCCC[C@@H](O)[C@H]1CC[C@H]([C@H]2CC[C@H]([C@H](O)CC[C@H](O)CCCCCCCC3=C[C@H](C)OC3=O)O2)O1
786-0 renal
  TGI: 5.66 µM
A498 renal
  TGI: 4.94 µM
A549 NSCLC
  TGI: 4.42 µM
ACHN renal
  TGI: 2.45 µM
BT-549 breast
  TGI: 1.02 µM
CAKI-1 renal
  TGI: 6.81 µM
CCRF-CEM leukemia
  TGI: 4.74 µM
COLO 205 colon
  TGI: 3.94 µM
DU-145 prostate
  TGI: > 10 µM
EKVX NSCLC
  TGI: 2.82 µM
HCT-116 colon
  TGI: 4.42 µM
HCT-15 colon
  TGI: 4.33 µM
HL-60(TB) leukemia
  TGI: 4.17 µM
HOP-62 NSCLC
  TGI: 2.96 µM
HOP-92 NSCLC
  TGI: 4.23 µM
HS 578T breast
  TGI: 5.48 µM
HT29 colon
  TGI: 3.25 µM
IGROV1 ovarian
  TGI: 3.2 µM
K-562 leukemia
  TGI: > 10 µM
KM12 colon
  TGI: 2.9 µM
LOX IMVI melanoma
  TGI: 2.76 µM
M14 melanoma
  TGI: 3.11 µM
MCF7 breast
  TGI: 2.72 µM
MDA-MB-231 breast
  TGI: 6.36 µM
MDA-MB-435
  TGI: 4.05 µM
MDA-N
  TGI: 4.49 µM
MOLT-4 leukemia
  TGI: > 10 µM
NCI-H226 lung
  TGI: 3.48 µM
NCI-H23 lung
  TGI: 2.31 µM
NCI-H460 lung
  TGI: 2.82 µM
NCI/ADR-RES ovarian
  TGI: 3.8 µM
OVCAR-3 ovarian
  TGI: 2.95 µM
OVCAR-5 ovarian
  TGI: 3.25 µM
OVCAR-8 ovarian
  TGI: 4 µM
PC-3 prostate
  TGI: 2.9 µM
RPMI-8226 leukemia
  TGI: 9.49 µM
RXF 393 renal
  TGI: 5.9 µM
SF-268 CNS
  TGI: 3.32 µM
SF-295 CNS
  TGI: 3.01 µM
SF-539 CNS
  TGI: 3.12 µM
SK-MEL-2 melanoma
  TGI: 2.93 µM
SK-MEL-28 melanoma
  TGI: 3.6 µM
SK-MEL-5 melanoma
  TGI: 4.48 µM
SN12C renal
  TGI: 8.13 µM
SNB-19 CNS
  TGI: 2.62 µM
SNB-75 CNS
  TGI: 3.77 µM
SR leukemia
  TGI: > 10 µM
SW-620 colon
  TGI: 5.82 µM
T-47D breast
  TGI: > 10 µM
TK-10 renal
  TGI: 2.65 µM
U251 CNS
  TGI: 5.32 µM
UACC-257 melanoma
  TGI: 2.35 µM
UACC-62 melanoma
  TGI: 2.58 µM
UO-31 renal
  TGI: 2.16 µM

Reference: PubChem BioAssay (NCI)
